# Test results reported in patent US20250082781A1, “METHODS OF LOWERING BLOOD GLUCOSE AND TREATING TYPE 2 DIABETES BY ACTIVATION OF PDE4D3” (Salk Institute for Biological Studies, priority 2021, published 2025).
# How the values were obtained:
# [1] = tested on: HSL phosphorylation at S660; assay: Western blot of pHSL-S660 in 3T3-L1 adipocytes; assay type: cell-based; conditions: basal and ISO-stimulated, FGF1 100 ng/ml
# Procedure: Tissues were lysed in cold lysis buffer (50 mM Tris, pH 7.5, 150 mM NaCl, 1% NP40, 0.5% NaDoc, 0.1% SDS, 5% glycerol, 1 mM EDTA, protease and phosphatase inhibitors (complete and PhosSTOP (Roche)) by homogenization by bead-beater for 30 s. Samples were cleared for 10 min at 18,000 g at 4° C. and the middle clear phase was transferred to new tubes. A second 30 min centrifugation was performed and the middle clear phase was transferred to new tubes. Five ul protein extract was used for BCA assay to determine protein concentration. Samples were boiled in Laemmli buffer. SDS-PAGE and blotting were performed using gradient gels and Trans-Blot Turbo Transfer System (Bio-Rad). Antibodies used were PDE4D (12918-1-AP, Proteintech), pHSL-660 (4126S, Cell signaling), HSL (4107S, Cell Signaling), tubulin (CP06, Millipore Sigma), and GFP (A01388, GenScript). PDE4D3-pS44 phospho-specific antibody was generated using PDE4D3-S44 FRRHpSWISFDVDNGTSAGR peptide (SEQ ID NO: 20) (Mackenzie et al., 2002) by Pocono Rabbit Farm, using 70-day rabbit antibody production protocol and purified via affinity purification. Primary antibodies were incubated for 2 h at room temperature (RT) or overnight (ON) at 4° C. Blots were developed using SuperSignal West Pico PLUS Chemiluminescent Substrate (ThermoFisher Scientific) and imaged with BioRad GelDoc system.
# [2] = tested on: hepatic glucose production; assay: Pyruvate tolerance and glycerol tolerance tests; assay type: in vivo, mouse
# Procedure: Pyruvate tolerance and glycerol tolerance tests were performed in ob ob and DIO mice after overnight fasting at 1.5 g kg^−1 dose using sodium pyruvate (0.2 g/ml) or 20% glycerol solution in PBS. Insulin tolerance test and glucose tolerance test were performed in ob ob mice after 8 h fasting. 2 U kg^−1 insulin (Humulin R) and 0.5 g kg^−1 glucose were used respectively. Blood glucose from tail bleeding was monitored by a OneTouch glucometer.
# [3] = tested on: endogenous glucose production; assay: Hyperinsulinemic clamp in ob/ob mice; assay type: in vivo, mouse; conditions: FGF1 0.5 mg/kg every other day for a week
# Procedure: Before the test, mice were equipped with a permanent catheter in the right atrium via the jugular vein and were allowed to recover over a period of at least 3 days. After the recovery period, the mice were placed in experimental cages. All infusion experiments were performed in conscious, unrestrained mice as described previously (van Dijk et al., 2003). During the experiment, blood glucose levels were determined every 15 minutes using a Lifescan EuroFlash glucose meter. For GC-MS analysis of [U-^13C] glucose, bloodspots on filter paper were collected from the tail vein every 30 minutes.
# Ob/ob mice were treated for 1 week with rFGF1 (0.5 mg kg^−1 every other day for one week). Steady state glucose fluxes were determined for basal and hyperinsulinemic-euglycemic clamp conditions. During the first period, mice were infused with a solution containing a tracer of [U-13C] glucose (2.5 mg/ml Cambridge Isotope Laboratories, Andover, MA) at an infusion rate of 0.54 ml/h. With respect to the final period, blood glucose levels were clamped at 20 mM. For this, the mice were infused at a constant rate of 0.135 ml/h with a mixture of insulin (44 mU/ml, Actrapid, Novo Nordisk, Bagsvaerd, Denmark), somatostatin (20 μg/ml, UCB Breda, the Netherlands), 1% BSA, and glucose (200 mg/ml from which 3% [U-^13C] glucose). Additionally, a second (variable) infusion was used containing glucose (200 mg/ml from which 3% [U-^13C] glucose) to adjust blood glucose levels.
# blood glucose levels = assay: Blood glucose levels in ob/ob mice; assay type: in vivo, mouse
# Procedure: (§1) Mice were kept in 12 h light/dark cycle in a temperature-controlled environment. Mice had free access to food and water unless noted otherwise. C57/B6 mice background was used unless noted otherwise. C57BL/6J and ob/ob (000632-B6. Cg-Lepob/J) male mice were obtained from Jackson Laboratory. PDE4D knock-out mice (034588-UCD) were obtained from MMRRC. For diet-induced obesity (DIO) studies, mice were fed a high fat diet (HFD) (60% fat, F3282; Bio-Serv) for minimum of 12 weeks to induce insulin resistance when diet-induced obese model is used. Insulin levels and blood glucose levels were monitored to confirm insulin resistance. To generate adipose-specific FGFR1 deletion, adiponectin-cre mice (B6; FVB-Tg (Adipoq-cre)1Evdr/J; Stock: 010803) were crossed to Fgfr1 flox/flox (B6.129S4-Fgfr1tm5.1Sor/J; Stock: 00767) mice. For AAV mediated expression of target proteins in adipose tissue, 5×10E+11 genomic copies of AAV were injected via tail vein or retro-orbital route.
# (§2) Recombinant FGF1 (rFGF1) was dissolved in phosphate-buffered saline (PBS) at a concentration of 0.2 mg/ml and was injected subcutaneously at a 0.5 mg kg^−1 dose. Blood glucose was monitored at indicated time points after injection. For initial measurements (2-4 h) food was removed after injection to exclude any indirect effects stemming from anorexigenic effects of FGF1. PDE4 inhibitor roflumilast stock in DMSO was diluted at 1 mg/ml in 30% captisol, pH 10 and delivered to mice thorough oral gavage at 5 mg kg^−1 dose. PDE3 inhibitor cilostamide stock in DMSO was diluted at 2 mg/ml in 30% captisol and delivered through intraperitoneal injection at 10 mg kg^−1 dose.
# serum FFA levels = assay: Serum FFA levels in DIO mice; assay type: in vivo, mouse; conditions: FGF1 0.5 mg/kg s.c.
# Procedure: as §1, §2
# [4] = overnight fasted ob/ob mice, 2 h after FGF1 0.5 mg/kg
substance,measurement,setting,value
"FGF1: Recombinant fibroblast growth factor 1 protein, dissolved in PBS, injected subcutaneously",HSL phosphorylation at S660 (pHSL),[1],suppressed HSL phosphorylation at S660
same,pyruvate and glycerol tolerance tests,"[2]; DIO mice, 2 h after FGF1 0.5 mg/kg",replicated in DIO mice
same,suppression of pyruvate utilization,[2]; adR1WT vs adR1KO DIO mice,dependent on adipocyte FGFR1 expression
same,glycerol tolerance test,[2]; [4],no differences
same,pyruvate tolerance test (glucose synthesis from pyruvate),[2]; [4],markedly reduced ability to synthesize glucose from pyruvate
same,reduction in basal endogenous glucose production (EGP),[3],~25%
same,exogenous glucose infusion rate (GIR),[3]; clamp conditions,higher
same,glucose disposal rate (GDR),[3]; clamp conditions,not altered
same,"blood glucose, FGF1 co-administered with atglistatin","blood glucose levels; ad lib fed ob/ob mice, FGF1 0.5 mg/kg + atglistatin 120 mg/kg",no additive effects
same,blood glucose,"blood glucose levels; ad lib fed ob/ob mice, FGF1 0.5 mg/kg s.c. as single agent",robustly lowered blood glucose
same,FGF1-induced reduction in glucose levels in mice overexpressing PDE4D3,"blood glucose levels; ob/ob mice with adAAV-PDE4D3, FGF1 0.5 mg/kg",greater reduction in glucose levels
same,FGF1 glucose response in mice expressing the S44A mutant,"blood glucose levels; ob/ob mice with adAAV-PDE4D3 S44A, FGF1 0.5 mg/kg",indistinguishable from control mice
same,serum FFA levels,serum FFA levels; overnight fasted DIO adR1KO mice,failed to affect adR1KO mice
same,reduction of serum FFA levels,"serum FFA levels; overnight fasted DIO adR1WT mice, 30 min",~30%
